Source: patent publication US20210054393A1, “GENES FOR HORMONE-FREE PLANT REGENERATION” (priority 2018, published 2021)

Tested on: Arabidopsis seedlings
Experiment: Hormone-independent shoot regeneration of Arabidopsis seedlings after chemical induction of the transformed constructs
Assay type: in vivo, Arabidopsis thaliana
Method: For plant transformation, vector SHOOT REGENERATION was introduced into A. tumefaciens (strain C58C1.pMP90) by electroporation. Transformant A. tumefaciens were used to transform A. thaliana plants of the Col-0 ecotype by the floral dip method (Clough, 1998).
Seeds were surface sterilised by chlorin gas by the vapor sterilisation method (Lindsey, 2017). After sterilisation, the seeds were suspended in a 0.1% agarose solution, before being stratified at 4° C. in darkness for 48 hours. Subsequently, the seeds were plated on germination medium under sterile conditions. The seeds were plated on a fine nylon mesh (100 μm), which allowed for the contact with the medium without allowing seedlings to penetrate the mesh. The plates with the seedlings were sealed with surgical tape (3M, Micropore) to prevent desiccation. The plates were placed in upright position in a growth chamber (22° C., 120-150 μmol/m^2s with 16 h light/8 h dark photoperiodlight). The plates were left to grow in these circumstances for 5 days.
After 5 days of growth, the seedlings were transplanted under sterile conditions by transporting the mesh on which they were growing from the germination medium to the induction medium. The plates with the seedlings were sealed with surgical tape (3M, Micropore) to prevent desiccation. The plates were placed back in the growth chamber in upright position. The plates were left to grow in this condition for 14 days. Shoots started appearing in the second week of induction.
Plants transformed with the SHOOT REGENERATION vector (XVE-transactivated AmiRBR and AtWIND1; GVG-transactivated AtSHR, AtSCR, AtPLT1, AtPLT4, AtPLT5 and AtWOX5) were grown on medium containing 10 μM 17β-estradiol (EST: activation of XVE) and/or 10 μM dexamethasone (DEX: activation of GVG).
Plants transformed with the SHOOT REGENERATION-2 vector (XVE-transactivated AtWIND1; GVG-transactivated AtPLT1 and AtWOX5) were grown on medium containing 10 μM 17β-estradiol (EST: activation of XVE) and/or 10 μM dexamethasone (DEX: activation of GVG).

[1] = inducer on wild-type (non-transformed) seedlings, percentage of total number of seedlings tested

| Structure (SMILES) | green callus (inducer on wild-type (non-transformed) seedlings, percentage of the numbers with callus formation) [%] | shoot regeneration (inducer on wild-type (non-transformed) seedlings, percentage of the numbers with green callus formation) [%] | callus [1] [%] | green callus [1] [%] | root growth arrest [1] [%] | shoot regeneration [1] [%] | root growth arrest, callus formation or shoot regeneration (roots of non-transformed Arabidopsis, induced with 10 μM, result in words) |
| --- | --- | --- | --- | --- | --- | --- | --- |
| C[C@@H]1C[C@H]2[C@@H]3CCC4=CC(=O)C=C[C@]4(C)[C@@]3(F)[C@@H](O)C[C@]2(C)[C@@]1(O)C(=O)CO [DEX, dexamethasone] | 0 | 0 | 0 | 0 | 0 | 0 | – |
| C[C@]12CC[C@@H]3c4ccc(O)cc4CC[C@H]3[C@@H]1CC[C@@H]2O [estradiol, 17β-estradiol] | – | – | – | – | – | – | never showed any root growth arrest, callus formation or shoot regeneration |
